13 molecules from ChEMBL document CHEMBL3585310, “Synthesis and evaluation of artesunateindoloquinoline hybrids as antimalarial drug candidates” (Medchemcomm, 2014) can be followed below.

One data set deals with Heme. The data set can be described thus: Binding affinity to heme assessed as inhibition of beta-hematin formation by NP40 detergent based assay.
A short description of data set [1]: Selectivity index, ratio of IC50 for rat L6 cells to IC50 for chloroquine-sensitive Plasmodium falciparum NF54. The format is toxicity, cell-based. The following applies: L6 cells (cytotoxicity) versus Plasmodium falciparum NF54, read-out: Ratio IC50.
Data set [2] is described as follows: Selectivity index, ratio of IC50 for rat L6 cells to IC50 for chloroquine-resistant Plasmodium falciparum K1. Format: toxicity, cell-based. The settings on record: L6 cells (cytotoxicity) versus Plasmodium falciparum K1, read-out: Ratio IC50.
Data set [3] relates to Plasmodium falciparum. Nature of the data set: Resistance index, ratio of IC50 for chloroquine-resistant Plasmodium falciparum K1 to IC50 chloroquine-sensitive Plasmodium falciparum NF54. The format is functional.
The subject of data set [4] is Plasmodium berghei. The data set can be described thus: Antimalarial activity against Plasmodium berghei infected in NMRI mouse at 10 mg/kg, ip for 4 consecutive days by FACS analysis. Format: functional. For orientation: Flow cytometry measures light scatter and fluorescence of single cells or particles in a stream.
For data set [5], the system named is Plasmodium falciparum. Nature of the data set: Antiplasmodial activity against chloroquine-sensitive Plasmodium falciparum NF54. The format is functional, organism-based.
Data set [6] deals with Plasmodium falciparum. The data set can be described thus: Antiplasmodial activity against chloroquine-resistant Plasmodium falciparum K1. The format is functional, organism-based.
For data set [7], the system named is Plasmodium berghei. The data set can be described thus: Antimalarial activity against Plasmodium berghei infected in NMRI mouse assessed as survival at 10 mg/kg, ip for 4 consecutive days by FACS analysis. The format is functional.
The subject of a further data set is L6. The data set can be described thus: Cytotoxicity against rat L6 cells. The format is cell-based.

By IC50 is commonly meant the concentration that inhibits the measured activity by half. Turning to `COC(=O)c1ccc2c(c1)c(NCCCN)c1c3ccccc3nc-1n2C`, the IC50 at Heme was determined as 104000 nM.
As for `NCCCNc1nc2ccccc2c2[nH]c3ccccc3c12`, the selectivity ratio worked out at 45.8 in data set [1] and 7.6 in data set [2]. Moreover, the “Ratio IC50” value with Plasmodium falciparum [3] is recorded as 6. Moreover, the 50% inhibitory concentration (IC50) at Heme turned out to be 627000 nM.
For `C[C@H]1[C@H](OC(=O)CCC(=O)NCCCNc2c3c4ccccc4nc-3n(C)c3ccccc23)O[C@@H]2O[C@@]3(C)CC[C@H]4CCC[C@@H]1[C@]42OO3`, the selectivity ratio was determined as 3400 in data set [1] and 3640 in data set [2]. In the data set on Plasmodium berghei [4], this molecule showed an Activity of 89.6%. Further, the “Ratio IC50” value in the data set with Plasmodium falciparum [3] was 0.93. The 50% inhibitory concentration (IC50) in the data set with Plasmodium falciparum [5] was 0.45 nM; in the data set on Plasmodium falciparum [6] it was 0.42 nM; at Heme, 222000 nM; in the data set on L6 it was 1530 nM. Moreover, in the data set on Plasmodium berghei [7], the MSD amounted to 7.7 days.
For `C[C@H]1[C@H](OC(=O)CCC(=O)NCC(C)(C)CNc2c3c4ccccc4nc-3n(C)c3ccccc23)O[C@@H]2O[C@@]3(C)CC[C@H]4CCC[C@@H]1[C@]42OO3`, the figures for the selectivity ratio in data set [1] and in [2] were 2600 and 3180, respectively. In addition, the “Ratio IC50” value with Plasmodium falciparum [3] is given as 0.82. Also, the concentration for half-maximal inhibition (IC50) in the data set with Plasmodium falciparum [5] was found to be 1.14 nM; with Plasmodium falciparum [6] it was 0.93 nM; on Heme, 70200 nM; in the data set on L6, 2960 nM.
For the molecule `C[C@H]1[C@H](OC(=O)CCC(=O)NCC(C)(C)CNc2c3c4ccccc4nc-3n(C)c3ccc(Cl)cc23)O[C@@H]2O[C@@]3(C)CC[C@H]4CCC[C@@H]1[C@]42OO3`, the selectivity ratio in data set [1] was determined as 856; in data set [2] it was 3130. Further, the “Ratio IC50” value in the data set on Plasmodium falciparum [3] came to 0.27. In addition, the IC50 in the data set with Plasmodium falciparum [5] turned out to be 1.5 nM; in the data set with Plasmodium falciparum [6] it was 0.41 nM; on Heme, 37800 nM; in the data set on L6, 1280 nM.
For the molecule `C[C@H]1[C@H](OC(=O)CCC(=O)NCC(C)(C)CNc2c3c4ccccc4nc-3n(C)c3ccc(Br)cc23)O[C@@H]2O[C@@]3(C)CC[C@H]4CCC[C@@H]1[C@]42OO3`, the selectivity ratio in data set [1] came to 309; in data set [2], 1040. Further, the “Ratio IC50” value with Plasmodium falciparum [3] is 0.3. Further, the half-inhibitory concentration (IC50) came to 3.21 nM in the data set with Plasmodium falciparum [5], 0.95 nM in the data set on Plasmodium falciparum [6], 28900 nM on Heme and 991 nM with L6.
In the case of `COC(=O)c1ccc2c(c1)c(NCCCNC(=O)CCC(=O)O[C@@H]1O[C@@H]3O[C@@]4(C)CC[C@H]5CCC[C@@H]([C@H]1C)[C@]53OO4)c1c3ccccc3nc-1n2C`, the selectivity ratio stood at 1290 in data set [1] and 3720 in [2]. In addition, the “Ratio IC50” value with Plasmodium falciparum [3] is recorded as 0.35. The concentration for half-maximal inhibition (IC50) with Plasmodium falciparum [5] came out at 2.88 nM; in the data set on Plasmodium falciparum [6] it was 1 nM; on Heme it was 29200 nM; in the data set with L6, 3720 nM.
Take `COC(=O)c1ccc2c(c1)c(NCC(C)(C)CNC(=O)CCC(=O)O[C@@H]1O[C@@H]3O[C@@]4(C)CC[C@H]5CCC[C@@H]([C@H]1C)[C@]53OO4)c1c3ccccc3nc-1n2C`: the selectivity ratio in data set [1] came to 219; in [2], 604. The “Ratio IC50” value in the data set with Plasmodium falciparum [3] turned out to be 0.36. The IC50 in the data set with Plasmodium falciparum [5] amounted to 3.17 nM; in the data set with Plasmodium falciparum [6], 1.15 nM; on Heme, 25800 nM; with L6 it was 695 nM.
On to `COC(=O)c1ccc2c(c1)c(NCC(O)CNC(=O)CCC(=O)O[C@@H]1O[C@@H]3O[C@@]4(C)CC[C@H]5CCC[C@@H]([C@H]1C)[C@]53OO4)c1c3ccccc3nc-1n2C` (stereo partly drawn), for which the selectivity ratio in [1] stood at 826; in [2], 3060. In addition, in the data set with Plasmodium falciparum [3], the “Ratio IC50” value is 0.27. The IC50 in the data set on Plasmodium falciparum [5] worked out at 1.48 nM; with Plasmodium falciparum [6] it was 0.4 nM; on Heme, 41700 nM; in the data set with L6 it was 1220 nM.
For the molecule `C[C@H]1[C@H](OC(=O)CCC(=O)NCCCNc2nc3ccccc3c3[nH]c4ccccc4c23)O[C@@H]2O[C@@]3(C)CC[C@H]4[C@H](C)CC[C@@H]1[C@@]24OO3`, the selectivity ratio in [1] worked out at 1320; in [2], 3290. For the same molecule, the “Ratio IC50” value in the data set with Plasmodium falciparum [3] is reported as 0.4. Also, the IC50 is 1.67 nM in the data set with Plasmodium falciparum [5], 0.67 nM in the data set with Plasmodium falciparum [6], 15700 nM at Heme and 2200 nM in the data set with L6.
For `C[C@H]1[C@H](OC(=O)CCC(=O)NCCCNc2c3ccccc3nc3c2[nH]c2ccccc23)O[C@@H]2O[C@@]3(C)CC[C@H]4[C@H](C)CC[C@@H]1[C@@]24OO3`, the selectivity ratio in data set [1] was 215. Also, the 50% inhibitory concentration (IC50) stood at 12.2 nM in the data set with Plasmodium falciparum [5], 17100 nM at Heme and 2620 nM with L6.
In the same order, the values of `NCCCNc1c2ccccc2nc2c1[nH]c1ccccc12` are 16, 17.2 nM, 16800 nM and 276 nM.
Regarding `C[C@@H]1CC[C@H]2[C@@H](C)C(=O)O[C@@H]3O[C@@]4(C)CC[C@@H]1[C@]32OO4` [ARTEMISININ], the IC50 with Plasmodium falciparum [5] was found to be 4.3 nM; with Plasmodium falciparum [6] it was 2.8 nM.
